Assay results as given in patent US20220152203A1, “BROAD-BASED THERAPEUTIC FOR INACTIVATING COVID-19 AND OTHER VIRAL PATHOGENS USING CHEMILUMINESCENCE-ACTIVATED COMPOUNDS ENCAPSULATED IN NANOPARTICLES” (priority 2020, published 2022).
Converted amounts (≈) assume the structure as drawn. “And” between values parts separate entries of the source, which are not always exact repeats. Identical values can stand only once. Like-named read-outs stand apart in the source and are kept apart here.

Assays:
[1] = cited from earlier work
HIV-1ΔtatΔrev = type: cell-based
[2] = −20° C. in the absence of light and oxygen; cited from earlier work
HIV = settings: hypericin with “molecular flashlight”, cell culture in vitro; cited from earlier work

Structure (SMILES)	solubility in DMSO ([1]; DMSO) [mg/mL]	solubility in methanol ([1]; methanol) [mg/mL]	HIV p24 concentration as a function of time after infection (HIV-1ΔtatΔrev; day 0 (inoculum), hypericin exposed to the light (positive control)) [ng/mL]	HIV p24 concentration as a function of time after infection (HIV-1ΔtatΔrev; day 0 (inoculum), not exposed to light, hypericin 5 μmol, 2 h 37° C., replicates 1-3) [ng/mL]	HIV p24 concentration as a function of time after infection (HIV-1ΔtatΔrev; day 3, hypericin exposed to the light (positive control)) [ng/mL]	HIV p24 concentration as a function of time after infection (HIV-1ΔtatΔrev; day 3, not exposed to light, hypericin 5 μmol, 2 h 37° C., replicates 1-3) [ng/mL]	HIV p24 concentration as a function of time after infection (HIV-1ΔtatΔrev; day 6, hypericin exposed to the light (positive control)) [ng/mL]	HIV p24 concentration as a function of time after infection (HIV-1ΔtatΔrev; day 6, not exposed to light, hypericin 5 μmol, 2 h 37° C., replicates 1-3, listed as Hyp only)	HIV p24 concentration as a function of time after infection (HIV-1ΔtatΔrev; day 9, hypericin exposed to the light (positive control)) [ng/mL]	HIV p24 concentration as a function of time after infection (HIV-1ΔtatΔrev; day 9, not exposed to light, hypericin 5 μmol, 2 h 37° C., replicates 1-3, listed as Hyp only)	HIV p24 concentration as a function of time after infection (HIV-1ΔtatΔrev; day 13, hypericin exposed to the light (positive control)) [ng/mL]	HIV p24 concentration as a function of time after infection (HIV-1ΔtatΔrev; day 13, not exposed to light, hypericin 5 μmol, 2 h 37° C., replicates 1-3, listed as Hyp only)	HIV p24 concentration as a function of time after infection (HIV-1ΔtatΔrev; day 16, hypericin exposed to the light (positive control)) [ng/mL]	HIV p24 concentration as a function of time after infection (HIV-1ΔtatΔrev; day 16, not exposed to light, hypericin 5 μmol, 2 h 37° C., replicates 1-3, listed as Hyp only)	HIV p24 concentration as a function of time after infection (HIV-1ΔtatΔrev; day 20, hypericin exposed to the light (positive control)) [ng/mL]	HIV p24 concentration as a function of time after infection (HIV-1ΔtatΔrev; day 20, not exposed to light, hypericin 5 μmol, 2 h 37° C., replicates 1-3, listed as Hyp only)	solubility ([1]; DMSO)	storage stability [2]	effect on host cells (HIV)
O=C(O)C1CSC(c2nc3ccc(O)cc3s2)=N1 [D-luciferin, 4,5-Dihydro-2-(6-hydroxy-2-benzothiazolyl)-4-thiazolecarboxylic acid]	50 (≈ 178 mM)	10 (≈ 35.7 mM)	–	–	–	–	–	–	–	–	–	–	–	–	–	–	–	–	–
Cc1cc(O)c2c(=O)c3c(O)cc(O)c4c5c(O)cc(O)c6c(=O)c7c(O)cc(C)c8c1c2c(c34)c(c78)c65 [hypericin, Hypericin]	–	–	1	1	0.05	0.05	0.05	19.34 ng/mL and 12.13 ng/mL and 11 ng/mL	3	1,055 ng/ml and 831 ng/ml and 1,120 ng/ml	2.9	1,985 ng/ml and 3,501 ng/ml and 3,270 ng/ml	0.05	1,870 ng/ml and 1543 ng/ml and 923 ng/ml	6.6	1,763 ng/ml and 2,789 ng/ml and 2,775 ng/ml	soluble in DMSO	stable	without harming these cells
